Experimental findings from patent publication US20250257064A1, “TRIFLUOROMETHYL-SUBSTITUTED SULFONAMIDE AS BCL-2-SELECTIVE INHIBITOR” (Chia Tai Tianqing Pharmaceutical Group Co., Ltd., priority 2018, published 2025) are described below.

SMILES strings stand for the structures. pIC50: −log10 of the molar value.

The target in one experiment is T1, BCL-2/BAK (Homo sapiens, UniProt P10415).
T1 construct: purchased Cisbio
Kind of experiment: Screening on inhibitory activity for BCL-2/BAK binding (Cisbio HTRF kit). How it is done:
1.1 Screening on Inhibitory Activity for BCL-2/BAK Binding
500 nM Tag1-BCL-2 protein stock solution and 20 μM Tag2-BAK protein stock solution were diluted to 5 nM and 120 nM respectively with dilution buffer in kit (model: BCL-2/BAK (BH3) BINDING ASSAY KITS, from Cisbio). 5 μL of Tag1-BCL-2 protein diluent was added to each well, then different compounds dissolved with DMSO were added to the wells with a nanoliter pipettor, allowing the final compound concentrations to be 200 nM to 0.0488 nM (4-fold gradient for 7 concentrations in total). Blank control wells (without enzyme) and negative control wells (with enzyme, plus vehicle DMSO) were set, and 2 replicate wells were set. Finally, 5 μL of Tag2-BAK protein diluent was added to each well, and the mixture was mixed well by centrifugation and incubated at 25° C. for 15 min. 100× anti-Tag1-Eu^3+ and 100× anti-Tag2-XL665 were both diluted to 1× working concentration with the detection buffer in the kit. Anti-Tag1-Eu^3+ and anti-Tag2-XL665 were mixed well in a 1:1 ratio, and the mixture was added to wells at 5 μL/well, and incubated at 25° C. for 2 h or more. The plate was read using a PE Envision multi-functional microplate reader (excitation: […], emission: 665 nm) and IC50 (shown in table 1) was calculated by four-parameter fitting.

The subject of a further experiment is RS4;11 cells. Kind of experiment: Inhibitory effect on proliferation of RS4;11 cells (CCK-8). It counts as cell-based, human. The conditions noted are these: Homo sapiens, RS4-11, 72 h. How it is done:
Experimental Example 2: Inhibitory Effect of Compounds on Proliferation of RS4;11 Cells
RS4;11 cells (from Nanjing Cobioer) in logarithmic growth phase and good cell condition were added to a centrifuge tube and centrifuged at 1500 rpm for 3 min in a low speed centrifuge. The supernatant was discarded, and 5 mL of complete medium (RPMI basic medium+10 wt % fetal bovine serum (FBS)) was added using a pipette for cell resuspension. The cells were counted using a cell counter, diluted with complete medium to a cell density of 2×10^5 cells/mL, and added with an equivalent amount of RPMI basic medium to adjust the serum concentration to 5% and the cell density to 1×10^5 cells/mL for plate seeding. The cells were seeded on a 96-well plate at 100 μL/well using a pipettor, and incubated in an incubator at 37° C., 5% CO2 with saturated humidity. After 24 h of incubation, compounds were loaded using a nanoliter pipettor, 2 duplicate wells were set for each concentration, and cells without compound were used as negative controls. […] Inhibition rate (%)=(mean value of negative control group—mean value of experimental group)/(mean value of negative control group—mean value of blank group)×100%. A dose-response curve was fitted by four-parameter analysis, with the logarithm of compound concentration serving as abscissa and inhibition rate serving as ordinate, so that IC50 was calculated (FIG. 2).

The target in another experiment is T2, BCL-XL/BAK (Homo sapiens, UniProt Q07817).
T2 construct: purchased Cisbio
Kind of experiment: Screening on inhibitory activity for BCL-XL/BAK binding (Cisbio HTRF kit). How it is done:
1.2 Screening on Inhibitory Activity for BCL-XL/BAK Binding
300 nM Tag1-BCL-XL protein stock solution and 10 μM Tag2-BAK protein stock solution were diluted to 2 nM and 80 nM respectively with dilution buffer in kit (model: BCL-XL/BAK (BH3) BINDING ASSAY KITS, from Cisbio). 5 μL of Tag1-BCL-XL protein diluent was added to each well, then different compounds dissolved with DMSO were added to the wells with a nanoliter pipettor, allowing the final compound concentrations to be 2000 nM to 0.488 nM (4-fold gradient for 7 concentrations in total). Blank control wells (without enzyme) and negative control wells (with enzyme, plus vehicle DMSO) were set, and 2 replicate wells were set. Finally, 5 μL of Tag2-BAK protein diluent was added to each well, and the mixture was mixed well by centrifugation and incubated at 25° C. for 15 min. 100× anti-Tag1-Eu^3+ and 100× anti-Tag2-XL665 were both diluted to 1× working concentration with the detection buffer in the kit. Anti-Tag1-Eu^3+ and anti-Tag2-XL665 were mixed well in a 1:1 ratio, and the mixture was added to wells at 5 µL/well, and incubated at 25° C. for 2 h or more. The plate was read using a PE Envision multi-functional microplate reader (excitation: […], emission: 665 nm) and IC50 (shown in table 1) was calculated by four-parameter fitting.

T1 sequence (P10415 whole entry, species assumed): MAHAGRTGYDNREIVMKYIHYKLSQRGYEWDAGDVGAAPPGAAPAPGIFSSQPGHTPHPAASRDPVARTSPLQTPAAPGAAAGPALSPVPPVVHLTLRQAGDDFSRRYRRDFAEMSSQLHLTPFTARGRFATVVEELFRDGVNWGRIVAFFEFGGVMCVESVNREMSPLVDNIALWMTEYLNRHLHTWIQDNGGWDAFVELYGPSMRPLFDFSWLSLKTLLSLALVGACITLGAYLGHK
T2 sequence (Q07817 whole entry, species assumed): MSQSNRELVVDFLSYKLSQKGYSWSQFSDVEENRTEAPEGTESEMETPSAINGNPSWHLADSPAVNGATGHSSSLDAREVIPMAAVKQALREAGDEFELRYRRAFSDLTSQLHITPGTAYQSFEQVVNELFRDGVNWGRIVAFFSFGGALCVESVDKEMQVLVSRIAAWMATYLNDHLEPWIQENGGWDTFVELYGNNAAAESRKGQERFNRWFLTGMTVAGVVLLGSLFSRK

For the compound `CC(C)C(=O)N1CCO[C@@H](CNc2ccc(S(=O)(=O)NC(=O)c3ccc(N4CCN(CC5=C(c6ccc(C(F)(F)F)cc6Cl)CC(C)(C)CC5)CC4)cc3Oc3cnc4[nH]ccc4c3)cc2[N+](=O)[O-])C1` [Compound 62-1, (S)-4-(4-{[2-(2-chloro-4-trifluoromethylphenyl)-4,4-dimethylcyclohex-1-enyl]methyl}-piperazin-1-yl)-N-({3-nitro-4-[((4-isobutyrylmorpholin-2-yl)methyl)amino]phenyl}sulfonyl)-2-(1H-pyrrolo[2,3-b]pyridin-5-yloxy)-benzamide], the figures for the pIC50 at BCL-2/BAK, with RS4;11 cells and on BCL-XL/BAK were 8.63, 8.39 and 6.84, respectively.
Taken in the same sequence, the figures for `CC1(C)CCC(CN2CCN(c3ccc(C(=O)NS(=O)(=O)c4ccc(NC[C@H]5CN(S(C)(=O)=O)CCO5)c([N+](=O)[O-])c4)c(Oc4cnc5[nH]ccc5c4)c3)CC2)=C(c2ccc(C(F)(F)F)cc2Cl)C1` [Compound 63-1, (S)-4-(4-{[2-(2-chloro-4-trifluoromethylphenyl)-4,4-dimethylcyclohex-1-enyl]methyl}-piperazin-1-yl)-N-({3-nitro-4-[(((4-(methylsulfonyl)morpholin)-2-yl)methyl)amino]phenyl}sulfonyl)-2-(1H-pyrrolo[2,3-b]pyridin-5-yloxy)-benzamide] were 8.64, 8.85 and 6.66.
For `CC(C)C(=O)N1CCO[C@H](CNc2ccc(S(=O)(=O)NC(=O)c3ccc(N4CCN(CC5=C(c6ccc(C(F)(F)F)cc6Cl)CC(C)(C)CC5)CC4)cc3Oc3cnc4[nH]ccc4c3)cc2[N+](=O)[O-])C1` [Compound 66-1, (R)-4-(4-{[2-(2-chloro-4-trifluoromethylphenyl)-4,4-dimethylcyclohex-1-enyl]methyl}-piperazin-1-yl)-N-({3-nitro-4-[((4-isobutyrylmorpholin-2-yl)methyl)amino]phenyl}sulfonyl)-2-(1H-pyrrolo[2,3-b]pyridin-5-yloxy)-benzamide], the negative-log IC50 (pIC50) at BCL-2/BAK was 8.59; in the experiment on RS4;11 cells, 8.48; at BCL-XL/BAK it was 6.56.
As to `CC1(C)CCC(CN2CCN(c3ccc(C(=O)NS(=O)(=O)c4ccc(NC[C@@H]5CN(S(C)(=O)=O)CCO5)c([N+](=O)[O-])c4)c(Oc4cnc5[nH]ccc5c4)c3)CC2)=C(c2ccc(C(F)(F)F)cc2Cl)C1` [Compound 67-1, (R)-4-(4-{[2-(2-chloro-4-trifluoromethylphenyl)-4,4-dimethylcyclohex-1-enyl]methyl}-piperazin-1-yl)-N-({3-nitro-4-[(((4-(methylsulfonyl)morpholin)-2-yl)methyl)amino]phenyl}sulfonyl)-2-(1H-pyrrolo[2,3-b]pyridin-5-yloxy)-benzamide], the pIC50 on BCL-2/BAK was 9.22; in the experiment with RS4;11 cells, 9.10; on BCL-XL/BAK it was 6.70.
For `CC1(C)CCC(CN2CCN(c3ccc(C(=O)NS(=O)(=O)c4ccc(NCCCC5CN(S(C)(=O)=O)CCO5)c([N+](=O)[O-])c4)c(Oc4cnc5[nH]ccc5c4)c3)CC2)=C(c2ccc(C(F)(F)F)cc2Cl)C1` (stereo not drawn) [Compound 71-1, 4-(4-{[2-(2-chloro-4-trifluoromethylphenyl)-4,4-dimethylcyclohex-1-enyl]methyl}-piperazin-1-yl)-N-({3-nitro-4-[(3-(4-(2-methylsulfonyl)morpholin-2-yl)propyl)amino]phenyl}sulfonyl)-2-(1H-pyrrolo[2,3-b]pyridin-5-yloxy)-benzamide], the pIC50 was 9.12 on BCL-2/BAK, 8.21 with RS4;11 cells and 6.96 on BCL-XL/BAK.
The matching figures for `COCC(=O)N1CCC(CNc2ccc(S(=O)(=O)NC(=O)c3ccc(N4CCN(CC5=C(c6ccc(C(F)(F)F)cc6Cl)CC(C)(C)CC5)CC4)cc3Oc3cnc4[nH]ccc4c3)cc2[N+](=O)[O-])CC1` [Compound 73-1, 4-(4-{[2-(2-chloro-4-trifluoromethylphenyl)-4,4-dimethylcyclohex-1-enyl]methyl}-piperazin-1-yl)-N-({3-nitro-4-[((1-(2-methoxyacetyl)piperidin-4-yl)methyl)amino]phenyl}sulfonyl)-2-(1H-pyrrolo[2,3-b]pyridin-5-yloxy)-benzamide]: 8.80, 8.82 and 6.69.
As for `CCOC(=O)N1CCOC(CNc2ccc(S(=O)(=O)NC(=O)c3ccc(N4CCN(CC5=C(c6ccc(C(F)(F)F)cc6Cl)CC(C)(C)CC5)CC4)cc3Oc3cnc4[nH]ccc4c3)cc2[N+](=O)[O-])C1` (stereo not drawn) [Compound 74-1, 4-(4-{[2-(2-chloro-4-trifluoromethylphenyl)-4,4-dimethylcyclohex-1-enyl]methyl}-piperazin-1-yl)-N-({3-nitro-4-[((4-(ethoxyformyl)morpholin-2-yl)methyl)amino]phenyl}sulfonyl)-2-(1H-pyrrolo[2,3-b]pyridin-5-yloxy)-benzamide], the negative logarithm of the IC50 (pIC50) on BCL-2/BAK is 8.78; in the experiment with RS4;11 cells it was 8.16; at BCL-XL/BAK, 6.60.
For the compound `COC(=O)N1CCOC(CNc2ccc(S(=O)(=O)NC(=O)c3ccc(N4CCN(CC5=C(c6ccc(C(F)(F)F)cc6Cl)CC(C)(C)CC5)CC4)cc3Oc3cnc4[nH]ccc4c3)cc2[N+](=O)[O-])C1` (stereo not drawn) [Compound 75-1, 4-(4-{[2-(2-chloro-4-trifluoromethylphenyl)-4,4-dimethylcyclohex-1-enyl]methyl}-piperazin-1-yl)-N-({3-nitro-4-[((4-(methoxyformyl)morpholin-2-yl)methyl)amino]phenyl}sulfonyl)-2-(1H-pyrrolo[2,3-b]pyridin-5-yloxy)-benzamide], the pIC50 on BCL-2/BAK was 8.46; with RS4;11 cells, 8.41; at BCL-XL/BAK it was 6.49.
